Here are results for 36 compounds from US10577378B2, “EIF4A-inhibiting compounds and methods related thereto” (eFFECTOR Therapeutics, Inc., priority 2015, dated 2020).

The structures appear in SMILES notation. Where a name gives a salt, the structure may show the parent alone. Bounds are passed on as bounds.

In the first assay the test system is MDA-MB-231 human breast cancer cells. Briefly: Cell proliferation assay (CellTiter-Glo, 72 hours treatment). The following applies: Homo sapiens; MDA-MB-231 cells, 72 hours at 37° C., CellTiter-Glo; read-out: MDA-MB-231 cell proliferation assay (IC50). Format: cell-based. An outline of the steps: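 IC50 categories: under 100 nM +++, 100–1000 nM ++, above 1000 nM +, derived by sigmoidal curve fitting of CellTiter-Glo luminescence. Cells plated at 2,500 per well, dosed the following day and exposed 72 h at 37 °C versus DMSO control.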
For orientation: ATP-based viability assays read luminescence as a measure of living cells.
With `COc1cncc2c1[C@]1(O)[C@@H](CO)C[C@@H](c3ccccc3)[C@]1(c1ccc(C#N)cc1)O2` (single isomer, unassigned) [120F], the IC50 was less than 100 nM. `COc1cncc2c1[C@]1(O)[C@H](O)[C@H](CN3CC(F)(F)C3)[C@@H](c3ccccc3)[C@]1(c1ccc(C#N)cc1)O2` (single isomer, unassigned) [122F]: the IC50 is 100 to 1000 nM. For `COc1cncc2c1[C@]1(O)[C@H](O)[C@H](S(=O)(=O)N3CCOCC3)[C@@H](c3ccccc3)[C@]1(c1ccc(C#N)cc1)O2` (single isomer, unassigned) [126F], the IC50 was 100 to 1000 nM. Same read-out and setting: as for `COc1nc(C#N)cc2c1[C@]1(O)[C@H](O)[C@H](CN(C)C)[C@@H](c3ccccc3)[C@]1(c1ccc(C#N)cc1)O2` (single isomer, unassigned) [139F], the figure is less than 100 nM; as for `COc1nc(Cl)cc2c1[C@]1(O)[C@H](O)[C@H](CN(C)C)[C@@H](c3ccccc3)[C@]1(c1ccc(C#N)cc1)O2` (single isomer, unassigned) [140F], less than 100 nM; as for `COc1nc(C#N)cc2c1[C@]1(O)[C@H](O)[C@H](CN(C)C)[C@@H](c3ccccc3)[C@]1(c1ccc(Cl)cc1)O2` (single isomer, unassigned) [145F], less than 100 nM.

In the case of `COc1nc(C#N)cc2c1[C@]1(O)[C@H](O)[C@H](CN(C)C)[C@@H](c3ccccc3)[C@]1(c1ccc(C(F)(F)F)cc1)O2` (single isomer, unassigned) [147F], the IC50 was less than 100 nM. Same read-out and setting: as for `COc1nc(C#N)cc2c1[C@]1(O)[C@H](O)[C@H](CN3CCOCC3)[C@@H](c3ccccc3)[C@]1(c1ccc(C#N)cc1)O2` (single isomer, unassigned) [151F], the figure is less than 100 nM; as for `COc1nc(Cl)cc2c1[C@]1(O)[C@H](O)[C@H](CN3CCN(C)CC3)[C@@H](c3ccccc3)[C@]1(c1ccc(C#N)cc1)O2` (single isomer, unassigned) [198Fa], less than 100 nM; as for `COc1nc(C#N)cc2c1[C@]1(O)[C@H](O)[C@H](CN3CCC3)[C@@H](c3ccccc3)[C@]1(c1ccc(C#N)cc1)O2` (single isomer, unassigned) [212F], less than 100 nM. Consider `COc1cc2c(c(OC)n1)[C@]1(O)[C@H](O)[C@H](CN(C)C)[C@@H](c3ccccc3)[C@]1(c1ccc(C#N)cc1)O2` (single isomer, unassigned) [231F], for which the IC50 was less than 100 nM.

On to `COc1cncc2c1[C@]1(O)[C@H](O)[C@H](CN(C)CC(F)(F)F)[C@@H](c3ccccc3)[C@]1(c1ccc(C#N)cc1)O2` (single isomer, unassigned) [233F], for which the IC50 lay in the range of 100 to 1000 nM. On the same count and under the same terms, as for `COc1cncc2c1[C@]1(O)[C@H](O)[C@H](CN(C)C(C)(C)C)[C@@H](c3ccccc3)[C@]1(c1ccc(C#N)cc1)O2` (single isomer, unassigned) [243F], the figure is 100 to 1000 nM. On the same count and under the same terms, as for `COc1cncc2c1[C@]1(O)[C@H](O)[C@H](CN(C)CCF)[C@@H](c3ccccc3)[C@]1(c1ccc(C#N)cc1)O2` (single isomer, unassigned) [248F], the figure is less than 100 nM. Still for that read-out and setting: as for `COc1cncc2c1[C@]1(O)[C@H](O)[C@H](CN(C)Cc3ccnn3C)[C@@H](c3ccccc3)[C@]1(c1ccc(C#N)cc1)O2` (single isomer, unassigned) [250F], the figure is greater than 1000 nM. With `COc1cncc2c1[C@]1(O)[C@H](O)[C@H](CN(C)CC(C)(C)O)[C@@H](c3ccccc3)[C@]1(c1ccc(C#N)cc1)O2` (single isomer, unassigned) [252F], the IC50 was less than 100 nM. On to `COc1cncc2c1[C@]1(O)[C@H](O)[C@H](CNCC(C)(C)O)[C@@H](c3ccccc3)[C@]1(c1ccc(C#N)cc1)O2` (single isomer, unassigned) [254F], for which the IC50 is less than 100 nM. Same read-out and setting: the value for `COc1cncc2c1[C@]1(O)[C@H](O)[C@H](CN(C)C)[C@@H](c3ccccc3)[C@]1(c1ccc(C)cc1)O2` (single isomer, unassigned) [256F] was less than 100 nM; that for `COc1cncc2c1[C@]1(O)[C@H](O)[C@H](CN3CCCCC3)[C@@H](c3ccccc3)[C@]1(c1ccc(C#N)cc1)O2` (single isomer, unassigned) [258F] was less than 100 nM.

Take `COCCN(C)C[C@H]1[C@@H](O)[C@@]2(O)c3c(OC)cncc3O[C@@]2(c2ccc(C#N)cc2)[C@@H]1c1ccccc1` (single isomer, unassigned) [261F]: the IC50 was less than 100 nM.

For `COc1cncc2c1[C@]1(O)[C@H](O)[C@H](CN3[C@@H]4CC[C@H]3COC4)[C@@H](c3ccccc3)[C@]1(c1ccc(C#N)cc1)O2` (single isomer, unassigned) [265F], the IC50 fell in the range of 100 to 1000 nM. Still for that read-out and setting: the value for `COc1cncc2c1[C@]1(O)[C@H](O)[C@H](CN3[C@@H]4CCC[C@H]3CC4)[C@@H](c3ccccc3)[C@]1(c1ccc(C#N)cc1)O2` (single isomer, unassigned) [268F] was 100 to 1000 nM; that for `COc1cncc2c1[C@]1(O)[C@H](O)[C@H](CN(C)C)[C@@H](c3ccccc3)[C@]1(c1ccc(Cl)cc1)O2` (single isomer, unassigned) [272F] was less than 100 nM; that for `COc1cncc2c1[C@]1(O)[C@H](O)[C@H](CN3CC4CC(C3)O4)[C@@H](c3ccccc3)[C@]1(c1ccc(C#N)cc1)O2` (single isomer, unassigned) [274F] was 100 to 1000 nM. The same measure, in the same setting: the value for `COc1cncc2c1[C@]1(O)[C@H](O)[C@H](CN3CCC(F)(F)C3)[C@@H](c3ccccc3)[C@]1(c1ccc(C#N)cc1)O2` (single isomer, unassigned) [280F] was 100 to 1000 nM; that for `COc1cncc2c1[C@]1(O)[C@H](O)[C@H](CN3CCOCC3)[C@@H](c3ccccc3)[C@]1(c1ccc(C(F)(F)F)cc1)O2` (single isomer, unassigned) [282F] was 100 to 1000 nM. Same read-out and setting: as for `COc1cncc2c1[C@]1(O)[C@H](O)C(CN3CCN(C)CC3)[C@@H](c3ccccc3)[C@]1(c1ccc(C(F)(F)F)cc1)O2` (single isomer, unassigned) [284F], the figure is 100 to 1000 nM.

For `COc1cncc2c1[C@]1(O)[C@H](O)[C@H](CNCC(F)F)[C@@H](c3ccccc3)[C@]1(c1ccc(C(F)(F)F)cc1)O2` (single isomer, unassigned) [286F], the IC50 lay within 100 to 1000 nM. For `COc1cncc2c1[C@]1(O)[C@H](O)[C@H](CNC(C)(C)C)[C@@H](c3ccccc3)[C@]1(c1ccc(C#N)cc1)O2` (single isomer, unassigned) [290F], the IC50 lay in the range of 100 to 1000 nM. For `CS(=O)(=O)[C@H]1[C@@H](O)[C@@]2(O)c3ncc(C#N)cc3O[C@@]2(c2ccc(C#N)cc2)[C@@H]1c1ccccc1` [86F, (5aR,6S,7R,8S,8aS)-5a-(4-cyanophenyl)-8,8a-dihydroxy-7-(methylsulfonyl)-6-phenyl-5a,7,8,8a-tetrahydro-6H-cyclopenta[4,5]furo[3,2-b]pyridine-3-carbonitrile], the IC50 was greater than 1000 nM. The same measure, in the same setting: as for `CN(C)C[C@H]1[C@@H](O)[C@@]2(O)c3ncc(Cl)cc3O[C@@]2(c2ccc(C#N)cc2)[C@@H]1c1ccccc1` [104F, 4-((5aR,6S,7S,8R,8aS)-3-chloro-7-((dimethylamino)methyl)-8,8a-dihydroxy-6-phenyl-6,7,8,8a-tetrahydro-5aH-cyclopenta[4,5]furo[3,2-b]pyridin-5a-yl)benzonitrile], the figure is 100 to 1000 nM; as for `COCCNC[C@H]1[C@@H](O)[C@@]2(O)c3c(OC)cncc3O[C@@]2(c2ccc(C#N)cc2)[C@@H]1c1ccccc1` [263F, 4-((4bS,5R,6S,7S,7aR)-4b,5-dihydroxy-4-methoxy-6-(((2-methoxyethyl)amino)methyl)-7-phenyl-4b,5,6,7-tetrahydro-7aH-cyclopenta[4,5]furo[2,3-c]pyridin-7a-yl)benzonitrile hydrochloride], less than 100 nM.

Turning to `COc1cncc2c1[C@]1(O)[C@H](O)[C@H](CN(C)Cc3cccnc3)[C@@H](c3ccccc3)[C@]1(c1ccc(C#N)cc1)O2` [278F, 4-((4bS,5R,6S,7S,7aR)-4b,5-dihydroxy-4-methoxy-6-((methyl(pyridin-3-ylmethyl)amino)methyl)-7-phenyl-4b,5,6,7-tetrahydro-7aH-cyclopenta[4,5]furo[2,3-c]pyridin-7a-yl)benzonitrile], the IC50 lay in the range of 100 to 1000 nM.

Turning to `COc1nc(C#N)cc2c1[C@]1(O)[C@H](O)[C@H](CN3CC(F)(F)C3)[C@@H](c3ccccc3)[C@]1(c1ccc(C#N)cc1)O2` [288F, (5aR,6S,7S,8R,8aS)-5a-(4-cyanophenyl)-7-((3,3-difluoroazetidin-1-yl)methyl)-8,8a-dihydroxy-1-methoxy-6-phenyl-5a,7,8,8a-tetrahydro-6H-cyclopenta[4,5]furo[3,2-c]pyridine-3-carbonitrile], the IC50 was less than 100 nM.

`COc1cncc2c1[C@]1(O)[C@H](O)[C@H](CNCC(F)(F)F)[C@@H](c3ccccc3)[C@]1(c1ccc(C#N)cc1)O2` [291F, 4-((4bS,5R,6S,7S,7aR)-4b,5-dihydroxy-4-methoxy-7-phenyl-6-(((2,2,2-trifluoroethyl)amino)methyl)-4b,5,6,7-tetrahydro-7aH-cyclopenta[4,5]furo[2,3-c]pyridin-7a-yl)benzonitrile]: the IC50 was in the range of 100 to 1000 nM.

The assay is the same for the next values; noted with them: MDA-MB-231 cells, 72 hours at 37° C., CellTiter-Glo; read-out: MDA-MB-231 cell proliferation assay (IC50).
For `CN(C)C[C@H]1[C@@H](O)[C@@]2(O)c3ncc(C#N)cc3O[C@@]2(c2ccc(C#N)cc2)[C@@H]1c1ccccc1` [105F], the IC50 is greater than 1000 nM.
